Test results reported in PubChem BioAssay AID1259407 (Chemical Carcinogenesis Research Information System (CCRIS), 2018).
The source made the active and inactive calls. The rule behind the calls is not given here.

Tested on: CCRIS mutagenicity, Ames/micronucleus/aberration tests
Assay: CCRIS mutagenicity studies
[1] = Test System: AMES SALMONELLA TYPHIMURIUM, Strain/Indicator: TA98, Metabolic Activation: NONE, Method: PREINCUBATION
[2] = Test System: AMES SALMONELLA TYPHIMURIUM, Strain/Indicator: TA100, Metabolic Activation: NONE, Method: PREINCUBATION
[3] = Test System: AMES SALMONELLA TYPHIMURIUM, Strain/Indicator: TA102, Metabolic Activation: NONE, Method: PREINCUBATION
[4] = Test System: AMES SALMONELLA TYPHIMURIUM, Strain/Indicator: TA1535, Metabolic Activation: NONE, Method: PREINCUBATION
[5] = Test System: AMES SALMONELLA TYPHIMURIUM, Strain/Indicator: TA97, Metabolic Activation: NONE, Method: PREINCUBATION

C=C(C)CC(C)(C)C
mutagenic call [1]: inactive; negative
mutagenic call (Test System: AMES SALMONELLA TYPHIMURIUM, Strain/Indicator: TA98, Metabolic Activation: RAT, LIVER, S-9, PHENOBARBITAL AND BETA-NAPHTHOFLAVONE, Method: PREINCUBATION): inactive; negative
mutagenic call [2]: inactive; negative
mutagenic call (Test System: AMES SALMONELLA TYPHIMURIUM, Strain/Indicator: TA100, Metabolic Activation: RAT, LIVER, S-9, PHENOBARBITAL AND BETA-NAPHTHOFLAVONE, Method: PREINCUBATION): inactive; negative
mutagenic call [3]: inactive; negative
mutagenic call (Test System: AMES SALMONELLA TYPHIMURIUM, Strain/Indicator: TA102, Metabolic Activation: RAT, LIVER, S-9, PHENOBARBITAL AND BETA-NAPHTHOFLAVONE, Method: PREINCUBATION): inactive; negative
mutagenic call (Test System: AMES SALMONELLA TYPHIMURIUM, Strain/Indicator: TA104, Metabolic Activation: NONE, Method: PREINCUBATION): inactive; negative
mutagenic call (Test System: AMES SALMONELLA TYPHIMURIUM, Strain/Indicator: TA104, Metabolic Activation: RAT, LIVER, S-9, PHENOBARBITAL AND BETA-NAPHTHOFLAVONE, Method: PREINCUBATION): inactive; negative
mutagenic call [4]: inactive; negative
mutagenic call (Test System: AMES SALMONELLA TYPHIMURIUM, Strain/Indicator: TA1535, Metabolic Activation: RAT, LIVER, S-9, PHENOBARBITAL AND BETA-NAPHTHOFLAVONE, Method: PREINCUBATION): inactive; negative
mutagenic call (Test System: AMES SALMONELLA TYPHIMURIUM, Strain/Indicator: TA1537, Metabolic Activation: NONE, Method: PREINCUBATION): inactive; negative
mutagenic call (Test System: AMES SALMONELLA TYPHIMURIUM, Strain/Indicator: TA1537, Metabolic Activation: RAT, LIVER, S-9, PHENOBARBITAL AND BETA-NAPHTHOFLAVONE, Method: PREINCUBATION): inactive; negative
mutagenic call (Test System: E. COLI, Strain/Indicator: WP2UVRA/PKM101, Metabolic Activation: NONE, Method: PREINCUBATION): inactive; negative
mutagenic call (Test System: E. COLI, Strain/Indicator: WP2UVRA/PKM101, Metabolic Activation: RAT, LIVER, S-9, PHENOBARBITAL AND BETA-NAPHTHOFLAVONE, Method: PREINCUBATION): inactive; negative
mutagenic call (Test System: E. COLI, Strain/Indicator: WP2UVRA, Metabolic Activation: NONE, Method: PREINCUBATION): inactive; negative
mutagenic call (Test System: E. COLI, Strain/Indicator: WP2UVRA, Metabolic Activation: RAT, LIVER, S-9, PHENOBARBITAL AND BETA-NAPHTHOFLAVONE, Method: PREINCUBATION): inactive; negative

CC(N)[13C](=O)O (configuration not stated)
mutagenic call [5]: inactive; negative
mutagenic call (Test System: AMES SALMONELLA TYPHIMURIUM, Strain/Indicator: TA97, Metabolic Activation: RAT, LIVER, S-9, AROCLOR 1254, Method: PREINCUBATION): inactive; negative
mutagenic call [3]: inactive; negative
mutagenic call (Test System: AMES SALMONELLA TYPHIMURIUM, Strain/Indicator: TA102, Metabolic Activation: RAT, LIVER, S-9, AROCLOR 1254, Method: PREINCUBATION): inactive; negative

Oc1cc(Cl)c(Cl)c(Cl)c1Cl
mutagenic call (End Point: IN VITRO CHROMOSOMAL ABERRATIONS, Test System: CHINESE HAMSTER LUNG CELLS (CHL), Metabolic Activation: NONE): inactive; negative
mutagenic call (End Point: IN VITRO CHROMOSOMAL ABERRATIONS, Test System: CHINESE HAMSTER LUNG CELLS (CHL), Metabolic Activation: RAT, LIVER, S-9, KC-400): active; positive (structural changes)
mutagenic call (End Point: IN VITRO CHROMOSOMAL ABERRATIONS, Test System: CHINESE HAMSTER OVARY CELLS (CHO), Metabolic Activation: NONE): inactive; negative
mutagenic call (End Point: IN VITRO CHROMOSOMAL ABERRATIONS, Test System: CHINESE HAMSTER OVARY CELLS (CHO), Metabolic Activation: RAT, LIVER, S-9, AROCLOR 1254): active; positive (structural changes)
mutagenic call (Test System: AMES SALMONELLA TYPHIMURIUM, Strain/Indicator: TA97, Metabolic Activation: HAMSTER, LIVER, S-9, AROCLOR 1254 (10 OR 30%), Method: PREINCUBATION): inactive; negative
mutagenic call [5]: inactive; negative
mutagenic call (Test System: AMES SALMONELLA TYPHIMURIUM, Strain/Indicator: TA97, Metabolic Activation: RAT, LIVER, S-9, AROCLOR 1254 (10 OR 30%), Method: PREINCUBATION): inactive; negative
mutagenic call (Test System: AMES SALMONELLA TYPHIMURIUM, Strain/Indicator: TA98, Metabolic Activation: HAMSTER, LIVER, S-9, AROCLOR 1254 (10 OR 30%), Method: PREINCUBATION): inactive; negative
mutagenic call [1]: inactive; negative
mutagenic call (Test System: AMES SALMONELLA TYPHIMURIUM, Strain/Indicator: TA98, Metabolic Activation: RAT, LIVER, S-9, AROCLOR 1254 (10 OR 30%), Method: PREINCUBATION): inactive; negative
mutagenic call (Test System: AMES SALMONELLA TYPHIMURIUM, Strain/Indicator: TA100, Metabolic Activation: HAMSTER, LIVER, S-9, AROCLOR 1254 (10 OR 30%), Method: PREINCUBATION): inactive; negative
mutagenic call [2]: inactive; negative
mutagenic call (Test System: AMES SALMONELLA TYPHIMURIUM, Strain/Indicator: TA100, Metabolic Activation: RAT, LIVER, S-9, AROCLOR 1254 (10 OR 30%), Method: PREINCUBATION): inactive; negative
mutagenic call (Test System: AMES SALMONELLA TYPHIMURIUM, Strain/Indicator: TA1535, Metabolic Activation: HAMSTER, LIVER, S-9, AROCLOR 1254 (10 OR 30%), Method: PREINCUBATION): inactive; negative
mutagenic call [4]: inactive; negative
mutagenic call (Test System: AMES SALMONELLA TYPHIMURIUM, Strain/Indicator: TA1535, Metabolic Activation: RAT, LIVER, S-9, AROCLOR 1254 (10 OR 30%), Method: PREINCUBATION): inactive; negative

O=C(O)c1ccc(Cl)c([N+](=O)[O-])c1
mutagenic call [1]: active; positive
mutagenic call (Test System: AMES SALMONELLA TYPHIMURIUM, Strain/Indicator: TA98, Metabolic Activation: RAT, LIVER, S-9, KANECHLOR 500, Method: PREINCUBATION): inactive; negative
mutagenic call [2]: active; positive
mutagenic call (Test System: AMES SALMONELLA TYPHIMURIUM, Strain/Indicator: TA100, Metabolic Activation: RAT, LIVER, S-9, KANECHLOR 500, Method: PREINCUBATION): active; positive

Cc1cnc2ccc3c(nc(N[C@@H]4O[C@H](C(=O)O)[C@@H](O)[C@H](O)[C@H]4O)n3C)c2n1
mutagenic call [1]: inactive; negative
mutagenic call (Test System: AMES SALMONELLA TYPHIMURIUM, Strain/Indicator: TA98, Metabolic Activation: RAT, LIVER, S-9, AROCLOR 1254, Method: PREINCUBATION): inactive; negative

Cc1cccc2cccnc12
mutagenic call (Test System: AMES SALMONELLA TYPHIMURIUM, Strain/Indicator: TA98, Metabolic Activation: HAMSTER, LIVER, S-9, AROCLOR 1254 (30%), Method: PREINCUBATION): active; positive
mutagenic call [1]: inactive; negative
mutagenic call (Test System: AMES SALMONELLA TYPHIMURIUM, Strain/Indicator: TA98, Metabolic Activation: RAT, LIVER, S-9, AROCLOR 1254 (30%), Method: PREINCUBATION): inactive; negative
mutagenic call (Test System: AMES SALMONELLA TYPHIMURIUM, Strain/Indicator: TA100, Metabolic Activation: HAMSTER, LIVER, S-9, AROCLOR 1254 (30%), Method: PREINCUBATION): active; positive
mutagenic call [2]: inactive; negative
mutagenic call (Test System: AMES SALMONELLA TYPHIMURIUM, Strain/Indicator: TA100, Metabolic Activation: RAT, LIVER, S-9, AROCLOR 1254 (30%), Method: PREINCUBATION): inactive; negative
mutagenic call (Test System: AMES SALMONELLA TYPHIMURIUM, Strain/Indicator: TA100, Metabolic Activation: S-9, Method: PREINCUBATION): inactive; negative
mutagenic call (Test System: UDS RODENT HEPATOCYTES, Strain/Indicator: THY INCORP (NON-S-PHASE), Metabolic Activation: NONE, Method: AUTORADIOGRAPHY): active; positive

Nc1c(S(=O)(=O)O)cc2cc(S(=O)(=O)O)ccc2c1N=Nc1ccc(-c2ccc(N=Nc3c(N)c(S(=O)(=O)O)cc4cc(S(=O)(=O)O)ccc34)c(Cl)c2)cc1Cl
mutagenic call (Test System: AMES SALMONELLA TYPHIMURIUM, Strain/Indicator: TA1538, Metabolic Activation: HAMSTER, LIVER, S-9, Method: STANDARD PLATE): inactive; negative
mutagenic call (Test System: AMES SALMONELLA TYPHIMURIUM, Strain/Indicator: TA1538, Metabolic Activation: RAT, LIVER, S-9, AROCLOR 1254, Method: STANDARD PLATE): inactive; negative
